Values of other authors in patent US8883786B2, “Glucocorticoid receptor antagonists” (Hoffmann-La Roche Inc., priority 2007, dated 2014).

Assays:
[1] = clinical administration, acute, normal volunteers
[2] = clinical administration, chronic, Cushing's patients
ob/ob mice = details: leptin deficient ob/ob mice
gluconeogenic enzymes = details: db/db mice
[3] = test system: Hypothalamus-Pituitary gland-Adrenal gland (HPA) axis; details: HPA axis stimulation via feed-back mechanism
[4] = long term treatment (up to 1 year)

## CC#C[C@]1(O)CC[C@H]2[C@@H]3CCC4=CC(=O)CCC4=C3[C@@H](c3ccc(N(C)C)cc3)C[C@@]21C [RU486/mifepristone, mifepristone]
[1]
  fasting plasma glucose: decrease of fasting plasma glucose
[2]
  plasmatic HbA1c: decrease of plasmatic HbA1c
ob/ob mice
  fasting plasma glucose: normalizes fasting plasma glucose
Gluconeogenic enzymes
  activity of gluconeogenic enzymes: normalizes
[3]
  endogenous corticosteroids circulating in the blood: increase of endogenous corticosteroids circulating in the blood
[4]
  adrenal insufficiency symptoms: induces some adrenal insufficiency symptoms
